According to US6645983B1, “Pharmaceutical compositions comprising 4-quinolones for treating cancers” (Laboratoire L. Lafon, priority 1999, dated 2003):

Assays:
SW1088 = assay: MTT test, cytotoxic activity on non-clonogenic cell lines; format: cell-based; conditions: Homo sapiens, 10^−5 M, 72 hours of incubation, control condition = 100%, mean value, read-out: mean optical density as percentage of control, SW1088
Protocol: (§1) The principle of the MTT test is based on the mitochondrial reduction, by the metabolically active live cells, of the yellow-colored product MTT (3-(4,5-dimethylthiazol-2-yl)-2,5-diphenyltetrazolium bromide) to a blue-colored product, formazan. The amount of formazan thus obtained is directly proportional to the amount of live cells present in the culture well(s). This amount of formazan is measured by spectrophotometry.
(§2) The cell lines are maintained as a monolayer culture at 37° C. in stoppered culture dishes containing MEM 25 MM HEPES (Minimum Essential Medium) base medium. This medium is suited to the growth of a range of various mammalian diploid or primary cells. This medium is then supplemented with:
(§3) The 12 human cancer cell lines which were used were obtained from the American Type Culture Collection (ATCC, Rockville, Md., USA). These 12 cell lines are:
SW1088 (code ATCC: HTB-12) which is an astro-cytoma,
(§4) Experimentally, 100 μl of a cell suspension containing 20 000 to 50 000 (depending on the cell type used) cells/ml of culture medium are inoculated -in 96-well flat-bottomed multi-well plates and are left to stand in an incubator at 37° C., 5% CO2 and 70% humidity. After an incubation time of 24 hours, the culture medium is replaced with 100 μl of fresh medium containing either the various test compounds—at concentrations varying from 10^−5 to 10^−10 M—or the solvent having served for dissolving the products to be tested (control condition). […] The microplates are thus incubated for 3 hours at 37° C., then centrifuged for 10 minutes at 400 g. The yellowish solution of MTT is removed and the blue formazan crystals formed in the cell region are dissolved in 100 μl or DMSO. The microplates are then shaken for 5 minutes. […] Software incorporated in the spectrophotometer calculates the average optical density values and the standard deviation (SD) and standard error of mean (SEM) values.

[1] = Determination of the maximum tolerated dose (MTD); conditions: B6D2F1/Jico, mouse, in vivo, ip; single intraperitoneal administration, doses 2.5 to 160 mg/kg, survival over 14 days
Protocol: The evaluation of the maximum tolerated dose was performed on 4- to 6-week-old B6D2F1/Jico mice. The compounds were administered intraperitoneally at increasing doses ranging from 2.5 to 160 mg/kg. The value of the MTD (expressed in mg/kg) is determined from the observation of the survival rate of the animals over a 14-day period after a single administration of the product under consideration. The change in weight of the animals is also monitored during this period. When the MTD value is greater than 160 mg/kg, the MTD value is considered as being 160 mg/kg by default.

J82 = assay: MTT test, cytotoxic activity on non-clonogenic cell lines; format: cell-based; conditions: Homo sapiens, 10^−5 M, 72 hours of incubation, control condition = 100%, mean value, read-out: mean optical density as percentage of control, J82
Protocol: as §1, §2, §3
(§5) J82 (code ATCC: HTB-1) and T24 (code ATCC: HTB-4) which are two bladder cancers,
as §4

T24 = assay: as above; format: cell-based; conditions: Homo sapiens, T-24; 10^−5 M, 72 hours of incubation, control condition = 100%, mean value; read-out: mean optical density as percentage of control, T24
Protocol: as §1, §2, §3, §5, §4

U-373MG = assay: as above; format: cell-based; conditions: Homo sapiens, U373 MG; 10^−5 M, 72 hours of incubation, control condition = 100%, mean value; read-out: mean optical density as percentage of control, U-373MG
Protocol: as §1, §2, §3, §4

A549 = assay: as above; format: cell-based; conditions: Homo sapiens, 10^−5 M, 72 hours of incubation, control condition = 100%, mean value, read-out: mean optical density as percentage of control, A549
Protocol: as §1, §2, §3, §4

LoVo = assay: as above; format: cell-based; conditions: Homo sapiens, 10^−5 M, 72 hours of incubation, control condition = 100%, mean value, read-out: mean optical density as percentage of control, LoVo
Protocol: as §1, §2, §3, §4

MCF7 = assay: as above; format: cell-based; conditions: Homo sapiens, 10^−5 M, 72 hours of incubation, control condition = 100%, mean value, read-out: mean optical density as percentage of control, MCF7
Protocol: as §1, §2, §3, §4

U-87MG = assay: as above; format: cell-based; conditions: Homo sapiens, U-87 MG; 10^−5 M, 72 hours of incubation, control condition = 100%, mean value; read-out: mean optical density as percentage of control, U-87MG
Protocol: as §1, §2, §3, §4

HCT-15 = assay: as above; format: cell-based; conditions: Homo sapiens, 10^−5 M, 72 hours of incubation, control condition = 100%, mean value, read-out: mean optical density as percentage of control, HCT-16
Protocol: as §1, §2, §3, §4

T-47D = assay: as above; format: cell-based; conditions: Homo sapiens, T47D; 10^−5 M, 72 hours of incubation, control condition = 100%, mean value; read-out: mean optical density as percentage of control, T-47D
Protocol: as §1, §2, §3, §4

PC-3 = assay: as above; format: cell-based; conditions: Homo sapiens, 10^−5 M, 72 hours of incubation, control condition = 100%, mean value, read-out: mean optical density as percentage of control, PC-3
Protocol: as §1, §2, §3, §4

A-427 = assay: as above; format: cell-based; conditions: Homo sapiens, 10^−5 M, 72 hours of incubation, control condition = 100%, mean value, read-out: mean optical density as percentage of control, A-427
Protocol: as §1, §2, §3, §4

SMILES | viability at 10 µM (SW1088) [%] | MTD at 14 day [1] [mg/kg] | viability at 10 µM (J82) [%] | viability at 10 µM (T24) [%] | viability at 10 µM (U-373MG) [%] | viability at 10 µM (A549) [%] | viability at 10 µM (LoVo) [%] | viability at 10 µM (MCF7) [%] | viability at 10 µM (U-87MG) [%] | viability at 10 µM (HCT-15) [%] | viability at 10 µM (T-47D) [%] | viability at 10 µM (PC-3) [%] | viability at 10 µM (A-427) [%]
O=c1c(-c2ccccc2)c[nH]c2ccccc12 [CRL8326, 3-Phenyl-1,4-dihydro-4-quinolinone] | 108 | > 160 | 86.9 | 92.6 | 96.9 | 104 | 67.7 | 94.1 | 102 | 110 | 50.2 | 95.4 | 101
COc1ccc(-c2c[nH]c3ccccc3c2=O)cc1 [CRL8327, 3-(4-Methoxyphenyl)-1,4-dihydro-4-quinolinone] | 99 | > 160 | 85.1 | 187 | 58.7 | 71.5 | 47.3 | 90.7 | 89 | 87.5 | 79 | 87.4 | 77.5
COc1cccc2c(=O)c(-c3ccccc3)c[nH]c12 [CRL8328, 8-Methoxy-3-phenyl-1,4-dihydro-4-quinolinone] | 91 | 80 | 95.9 | 94.8 | 98.1 | 92.5 | 94.3 | 93.7 | 85.7 | 85.8 | 96 | 91.9 | 101
COc1ccc(-c2c[nH]c3c(OC)cccc3c2=O)cc1 [CRL8329, 8-Methoxy-3-(4-methoxyphenyl)-1,4-dihydro-4-quinolinone] | 96.2 | > 160 | 96.8 | 95.4 | 94 | 96.5 | 94.6 | 96.3 | 1.38 | 98 | 78.5 | 93.1 | 102
COc1ccc(-c2c[nH]c3cc(OC)cc(OC)c3c2=O)cc1 [CRL8337, 5,7-Dimethoxy-3-(4-methoxyphenyl)-1,4-dihydro-4-quinolinone] | 84.9 | > 160 | 90.9 | 102 | 95.6 | 96.9 | 93.3 | 76.5 | 84.4 | 98.5 | 79.4 | 92.8 | 106
COc1ccc(-c2cn(C)c3cc(OC)cc(OC)c3c2=O)cc1 [CRL8340, 5,7-Dimethoxy-3-(4-methoxyphenyl)-1-methyl-1,4-dihydro-4-quinolinone] | 84 | > 160 | 90.2 | 82.8 | 97.9 | 84 | 93 | 72.3 | 87.6 | 92.5 | 66.1 | 84.8 | 84.2
CCN(CC)C(=O)Cn1cc(-c2ccc(OC)cc2)c(=O)c2c(OC)cc(OC)cc21 [CRL8349, N,N-Diethyl-2-[5,7-dimethoxy-3-(4-methoxyphenyl)-4-oxo-1,4-dihydro-1-quinolinyl]acetamide] | 100 | > 160 | 93.3 | 95.1 | 66.7 | 96.2 | 104 | 97.4 | 98.3 | 91.2 | 91 | 98.6 | 90.7
COc1ccc(-c2cn(CCN(C)C)c3cc(OC)cc(OC)c3c2=O)cc1 [CRL8350, N-[3-(Dimethylamino)ethyl]-5,7-dimethoxy-3-(4-methoxyphenyl)-1,4-dihydro-4-quinolinone] | 101 | > 160 | 91.5 | 86.9 | 59.5 | 93 | 92 | 181 | 85.6 | 95.3 | 87.1 | 95.3 | 99.5
COc1ccc(-c2c[nH]c3c(OC)ccc(OC)c3c2=O)cc1 [CRL8351, 5,8-Dimethoxy-3-(4-methoxyphenyl)-1,4-dihydro-4-quinolinone] | 82.3 | 40 | 39.2 | 38.4 | 52.8 | 34.6 | 67 | 49 | 116 | 39.1 | 55 | 83.2 | 33.7
COc1cc(OC)c2c(=O)c(-c3ccccc3)c[nH]c2c1 [CRL8352, 5,7-Dimethoxy-3-phenyl-1,4-dihydro-4-quinolinone] | 96.8 | > 160 | 93 | 83.7 | 104 | 94.2 | 103 | 85.6 | 158 | 106 | 105 | 97.3 | 103
COc1ccc(OC)c2c(=O)c(-c3ccccc3)c[nH]c12 [CRL8353, 5,8-Dimethoxy-3-phenyl-1,4-dihydro-4-quinolinone] | 74 | > 160 | 79.1 | 68.6 | 54.5 | 42.3 | 85.5 | 49.6 | 107 | 55.7 | 87.2 | 81 | 52.5
